Drawing on publication PMC2666046 (Bioorganic & medicinal chemistry letters, 2009), this text covers IC50 and MIC for 7 compounds.

Broadly, the IC50 is the point on the concentration scale where inhibition reaches its midpoint.

Molecules are shown by their SMILES. In brackets after ≈: the same amount, converted by molar mass. Like-named read-outs stand apart in the source and are kept apart here.

For one test, the target named is B. anthracis NADS (Bacillus anthracis, UniProt Q81RP3). Kind of test: biochemical.
Test [1] has as its system Bacillus anthracis Sterne. Nature of the test: microbe, parasite or virus in culture. In kind it is cell-based. Particulars: read-out: B.a. MIC.

B. anthracis NADS, sequence (Q81RP3 whole entry, looked up): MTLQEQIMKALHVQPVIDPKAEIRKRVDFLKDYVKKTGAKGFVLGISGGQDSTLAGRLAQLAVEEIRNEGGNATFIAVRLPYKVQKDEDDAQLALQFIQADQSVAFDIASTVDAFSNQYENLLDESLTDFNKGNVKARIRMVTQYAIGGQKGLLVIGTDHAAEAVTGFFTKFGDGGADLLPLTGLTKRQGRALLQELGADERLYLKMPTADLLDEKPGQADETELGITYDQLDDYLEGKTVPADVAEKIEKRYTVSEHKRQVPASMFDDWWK

With `O=[N+]([O-])c1ccc(-c2cnc(N/N=C/c3cccc([N+](=O)[O-])c3)nc2)cc1` [Compound 5591], the IC50 against B. anthracis NADS stood at 160 µM. For `O=C(Nc1cccc(/N=C/c2cc([N+](=O)[O-])ccc2O)c1)c1ccc(Cl)cc1Cl` [Compound 5691], the IC50 against B. anthracis NADS is 106 µM. `CCc1ccc(S(=O)(=O)Nc2c([N+](=O)[O-])ccc3ccccc23)cc1` [Compound 5599]: the MIC in test [1] amounted to 3.75 µM (≈ 1.34 µg/mL). The compound `N/C(=N\OC(=O)c1ccc(Cl)c(Cl)c1)c1cccc(CSc2ccccn2)c1` [Compound 5775] came in with an IC50 against B. anthracis NADS of 290 µM. On the same count and under the same terms, the value for `NC(=O)c1ccc(/N=C/c2cc([N+](=O)[O-])ccc2Cl)cc1` [Compound 5679] was 262 µM. `O=C(Cn1cc(/C=C/c2[nH]c(=O)[nH]c(=O)c2[N+](=O)[O-])c2ccccc21)Nc1ccc(F)cc1` [Compound 5615]: the IC50 at B. anthracis NADS and at B. anthracis NADS (read-out: NADs IC50) was 55.4 µM throughout.

Take `COc1ccc(NC(=O)Nc2cccc(NC(=O)Nc3ccc(OC)cc3)c2F)cc1` [Compound 5707]: the IC50 against B. anthracis NADS worked out at 253 µM.
